Results on eight molecules are retold here after patent US12662491B2 (Redona Therapeutics, Inc., priority 2020, dated 2026).

The assay deals with T1, Zcchc11 enzyme (Homo sapiens, UniProt Q5TAX3).
T1 construct: made in house; host or cells: HEK293 cells (Zcchc11); E. coli Rosetta II (LIN28A)
T1 sequence (Q5TAX3 212-1420): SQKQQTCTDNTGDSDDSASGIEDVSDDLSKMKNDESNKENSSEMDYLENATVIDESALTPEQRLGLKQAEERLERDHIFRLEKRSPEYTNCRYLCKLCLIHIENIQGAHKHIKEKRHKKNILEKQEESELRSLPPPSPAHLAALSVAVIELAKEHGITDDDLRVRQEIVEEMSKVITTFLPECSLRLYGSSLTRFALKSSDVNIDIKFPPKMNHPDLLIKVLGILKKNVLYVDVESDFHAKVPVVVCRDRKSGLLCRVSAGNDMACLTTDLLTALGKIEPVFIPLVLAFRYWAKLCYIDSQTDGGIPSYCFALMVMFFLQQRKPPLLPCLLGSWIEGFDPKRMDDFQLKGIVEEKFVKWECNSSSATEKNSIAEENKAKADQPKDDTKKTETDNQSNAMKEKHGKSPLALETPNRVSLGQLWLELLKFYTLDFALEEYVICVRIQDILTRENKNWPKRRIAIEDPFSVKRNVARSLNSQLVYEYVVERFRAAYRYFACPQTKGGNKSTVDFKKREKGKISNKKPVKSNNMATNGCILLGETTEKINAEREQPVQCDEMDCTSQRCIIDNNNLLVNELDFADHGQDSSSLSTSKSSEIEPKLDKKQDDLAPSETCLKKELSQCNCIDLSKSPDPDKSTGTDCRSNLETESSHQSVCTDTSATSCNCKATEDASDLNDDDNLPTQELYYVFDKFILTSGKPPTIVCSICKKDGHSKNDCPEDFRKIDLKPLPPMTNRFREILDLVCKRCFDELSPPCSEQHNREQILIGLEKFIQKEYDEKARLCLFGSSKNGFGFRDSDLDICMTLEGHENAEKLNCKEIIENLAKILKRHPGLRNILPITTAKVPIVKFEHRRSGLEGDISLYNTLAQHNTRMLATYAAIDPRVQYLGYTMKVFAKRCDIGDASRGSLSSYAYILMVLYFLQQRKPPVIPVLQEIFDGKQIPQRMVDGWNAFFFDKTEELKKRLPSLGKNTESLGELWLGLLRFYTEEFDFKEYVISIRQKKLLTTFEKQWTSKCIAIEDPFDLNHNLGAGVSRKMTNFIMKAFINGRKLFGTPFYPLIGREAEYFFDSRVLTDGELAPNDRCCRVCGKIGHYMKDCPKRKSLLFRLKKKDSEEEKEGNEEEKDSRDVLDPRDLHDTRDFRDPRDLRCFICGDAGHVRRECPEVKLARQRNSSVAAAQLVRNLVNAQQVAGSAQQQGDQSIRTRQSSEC
In words: TUTase assay (Zcchc11 assay, Lin28a-dependent polyuridylation of pre-let-7). It counts as biochemical. To be noted: Lin28a-dependent Zcchc11 (Z11) TUTase assay; read-out: Potency Lin28a-dep Z11 IC50. An outline of the steps:
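Potency is measured as inhibition of LIN28A-driven U-tail addition to 2 nM pre-let-7 by 0.2 nM HEK293-derived Zcchc11 fragment with 5 uM UTP at room temperature. Tail growth appears as fluorescein quenching by an annealing rhodamine-A20 probe.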

On to `COc1cnc(OC[C@H]2CC3CC3N2c2cc3c(cc2Cl)c(=O)c(C(=O)O)cn3-c2ccnc(N)c2)c(Cl)c1` (stereo partly drawn) [Example 653, 1-(2-aminopyridin-4-yl)-6-chloro-7-((3R)-3-(((3-chloro-5-methoxypyridin-2-yl)oxy)methyl)-2-azabicyclo[3.1.0]hexan-2-yl)-4-oxo-1,4-dihydroquinoline-3-carboxylic acid], for which the concentration for half-maximal inhibition (IC50) is not above 1000 nM.

In the case of `COc1ccc(Cl)c(OC[C@H]2CC3CC3N2c2cc3c(cc2Cl)c(=O)c(C(=O)O)cn3-c2ccc(N3CC(N(C)C)C3)nc2)n1` (stereo partly drawn) [Example 654, 6-chloro-7-((3R)-3-(((3-chloro-6-methoxypyridin-2-yl)oxy)methyl)-2-azabicyclo[3.1.0]hexan-2-yl)-1-(6-(3-(dimethylamino)azetidin-1-yl)pyridin-3-yl)-4-oxo-1,4-dihydroquinoline-3-carboxylic acid], the 50% inhibitory concentration (IC50) is not above 1000 nM. For `CN(C)c1ccc(Cl)c(OC[C@H]2CCCN2c2cc3c(cc2Cl)c(=O)c(C(=O)O)cn3-c2ccnc(N)c2)n1` [Example 655, (R)-1-(2-aminopyridin-4-yl)-6-chloro-7-(2-(((3-chloro-6-(dimethylamino)pyridin-2-yl)oxy)methyl)pyrrolidin-1-yl)-4-oxo-1,4-dihydroquinoline-3-carboxylic acid], the IC50 is not above 1000 nM. Consider `COCCN(C)C1CN(c2ccc(-n3cc(C(=O)O)c(=O)c4cc(Cl)c(N5CCC[C@@H]5COc5nc(N(C)C)ccc5Cl)cc43)cn2)C1` [Example 657, (R)-6-chloro-7-(2-(((3-chloro-6-(dimethylamino)pyridin-2-yl)oxy)methyl)pyrrolidin-1-yl)-1-(6-(3-((2-methoxyethyl) (methyl)amino)azetidin-1-yl)pyridin-3-yl)-4-oxo-1,4-dihydroquinoline-3-carboxylic acid], for which the 50% inhibitory concentration (IC50) is not above 1000 nM. Take `CN(C)C1CN(c2ccc(-n3cc(C(=O)O)c(=O)c4cc(Cl)c(N5CCC[C@@H]5COc5nc(OC(C)(C)C)ccc5Cl)cc43)cn2)C1` [Example 658, (R)-7-(2-(((6-(tert-butoxy)-3-chloropyridin-2-yl)oxy)methyl)pyrrolidin-1-yl)-6-chloro-1-(6-(3-(dimethylamino)azetidin-1-yl)pyridin-3-yl)-4-oxo-1,4-dihydroquinoline-3-carboxylic acid]: the IC50 was not above 1000 nM.

For the molecule `COc1ccc(Cl)c(OC[C@H]2CCCN2c2cc3c(cc2C(F)(F)F)c(=O)c(C(=O)O)cn3-c2ccc(N3CC(N(C)C)C3)nc2)n1` [Example 659, (R)-7-(2-(((3-chloro-6-methoxypyridin-2-yl)oxy)methyl)pyrrolidin-1-yl)-1-(6-(3-(dimethylamino)azetidin-1-yl)pyridin-3-yl)-4-oxo-6-(trifluoromethyl)-1,4-dihydroquinoline-3-carboxylic acid], the IC50 is not above 1000 nM. In the case of `COc1ccc(Cl)c(OC[C@H]2C[C@H]3C[C@H]3N2c2cc3c(cc2Cl)c(=O)c(C(=O)O)cn3-c2ccc(N3CC(N(C)C)C3)nc2)n1` [Example 660, 6-chloro-7-((1R,3R,5R)-3-(((3-chloro-6-methoxypyridin-2-yl)oxy)methyl)-2-azabicyclo[3.1.0]hexan-2-yl)-1-(6-(3-(dimethylamino)azetidin-1-yl)pyridin-3-yl)-4-oxo-1,4-dihydroquinoline-3-carboxylic acid] it was not above 1000 nM; in that of `COc1ccc(Cl)c(OC[C@H]2C[C@@H]3C[C@@H]3N2c2cc3c(cc2Cl)c(=O)c(C(=O)O)cn3-c2ccc(N3CC(N(C)C)C3)nc2)n1` [Example 661, 6-chloro-7-((1S,3R,5S)-3-(((3-chloro-6-methoxypyridin-2-yl)oxy)methyl)-2-azabicyclo[3.1.0]hexan-2-yl)-1-(6-(3-(dimethylamino)azetidin-1-yl)pyridin-3-yl)-4-oxo-1,4-dihydroquinoline-3-carboxylic acid], not above 1000 nM.
